Values of other authors, collected in US6232438A, “Angiotensin converting enzyme inhibitors” (Nong Shim Co., Ltd., priority 1996, dated 2001).

Target: ACE (Homo sapiens, UniProt P12821)
Settings: peptide from enzymatic hydrolysate of milk casein

Chain of ACE (P12821 30-1306, species assumed): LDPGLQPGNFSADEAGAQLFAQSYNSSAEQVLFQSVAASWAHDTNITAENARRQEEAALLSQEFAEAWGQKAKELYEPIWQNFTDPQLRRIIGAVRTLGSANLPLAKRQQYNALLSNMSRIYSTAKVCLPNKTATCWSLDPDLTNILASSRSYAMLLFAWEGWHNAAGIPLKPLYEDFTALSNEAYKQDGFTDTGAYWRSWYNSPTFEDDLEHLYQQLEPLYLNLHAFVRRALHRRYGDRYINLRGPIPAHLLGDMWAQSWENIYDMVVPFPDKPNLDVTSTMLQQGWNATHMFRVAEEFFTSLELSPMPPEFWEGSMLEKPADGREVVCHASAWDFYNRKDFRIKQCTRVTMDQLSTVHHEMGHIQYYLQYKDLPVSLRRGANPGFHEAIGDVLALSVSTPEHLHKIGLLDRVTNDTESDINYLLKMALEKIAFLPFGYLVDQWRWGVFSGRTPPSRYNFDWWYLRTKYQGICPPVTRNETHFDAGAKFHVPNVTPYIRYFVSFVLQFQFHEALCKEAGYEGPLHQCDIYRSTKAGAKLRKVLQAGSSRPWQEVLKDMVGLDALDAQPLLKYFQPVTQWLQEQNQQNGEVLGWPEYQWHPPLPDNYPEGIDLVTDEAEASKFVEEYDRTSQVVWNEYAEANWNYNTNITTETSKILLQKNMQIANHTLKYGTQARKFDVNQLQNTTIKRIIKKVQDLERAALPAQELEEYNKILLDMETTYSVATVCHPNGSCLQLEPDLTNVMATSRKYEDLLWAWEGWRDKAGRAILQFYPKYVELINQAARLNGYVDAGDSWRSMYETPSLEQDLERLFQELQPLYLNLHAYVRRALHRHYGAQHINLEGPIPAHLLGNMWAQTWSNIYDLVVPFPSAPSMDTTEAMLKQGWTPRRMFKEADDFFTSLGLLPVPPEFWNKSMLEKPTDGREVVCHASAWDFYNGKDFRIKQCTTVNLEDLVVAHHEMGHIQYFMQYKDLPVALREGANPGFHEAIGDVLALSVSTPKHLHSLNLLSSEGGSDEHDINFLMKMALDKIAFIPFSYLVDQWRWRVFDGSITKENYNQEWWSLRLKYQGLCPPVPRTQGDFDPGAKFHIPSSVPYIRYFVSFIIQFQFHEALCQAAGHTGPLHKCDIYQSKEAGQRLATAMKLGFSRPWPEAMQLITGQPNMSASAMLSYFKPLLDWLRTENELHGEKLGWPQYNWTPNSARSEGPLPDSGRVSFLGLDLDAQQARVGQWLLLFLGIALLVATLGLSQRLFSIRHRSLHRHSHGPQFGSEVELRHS

Substance: phenylalanine-phenylalanine-valine-alanine-proline
- IC50: 6 µM
